Data on 9 compounds can be found in US8247596B2 (Sumitomo Chemical Company, Limited, priority 2007, dated 2012).

Common to all, as to assay type: in vivo
Assay [1] relates to Musca domestica. Kind of assay: Test Example 4: filter paper/sucrose bait test on Musca domestica. Conditions: 24 h, read-out: pest death rate. Here is the method: A formulation of any one of the present compounds (1), (4), (5), (7), (11), (12), (13), (18t), (18c), (19), (20), (21), (22), (24), (25t), (25c), (26t), (26c), (27), (29), (30), (31), (32), (33), (34), (35), (40), (41), (43), (49), (50) and (55) obtained according to Formulation Example 36 was diluted with water so that the active ingredient concentration was 500 ppm to obtain a test solution.
A filter paper having a diameter of 5.5 cm was spread on the bottom of a polyethylene cup having a diameter of 5.5 cm and 0.7 ml of the test solution was added dropwise onto the filter paper. As a bait 30 mg of sucrose was uniformly placed on the filter paper. Into the polyethylene cup, 10 female imagoes of Musca domestica were released and the cup was sealed with a lid. After 24 hours, the number of surviving Musca domestica was examined and the death rate of the pest was calculated.

For assay [2], the system named is Blattalla germanica. Nature of the assay: Test Example 5: filter paper/sucrose bait test on Blattalla germanica. As to conditions: 144 h, read-out: pest death rate. Here is the method:
A formulation of any one of the present compounds (4), (5), (7), (12), (13), (18t), (18c), (22), (25t), (25c), (26t), (26c), (29), (30), (31), (32), (33), (34), (40), (41), (43), (49) and (55) obtained according to Formulation Example 36 was diluted with water so that the active ingredient concentration was 500 ppm to obtain a test solution.
A filter paper having a diameter of 5.5 cm was spread on the bottom of a polyethylene cup having a diameter of 5.5 cm and 0.7 ml of the test solution was added dropwise onto the filter paper. As a bait 30 mg of sucrose was uniformly placed on the filter paper. Into the polyethylene cup, 2 male imagoes of Blattalla germanica were released and the cup was sealed with a lid. After 6 days, the number of surviving Blattalla germanica was examined and the death rate of the pest was calculated.

Assay [3] relates to Culex pipiens pallens. Kind of assay: Test Example 6: larvae of Culex pipiens pallens in treated water. Conditions: 24 h, read-out: pest death rate. The procedure:
A formulation of any one of the present compounds (7), (11), (12), (13), (17), (18t), (18c), (22), (24), (25t), (25c), (26t), (26c), (27), (29), (33), (34), (35), (36), (38), (40), (41), (43), (47), (49), (50) and (55) obtained according to Formulation Example 36 was diluted with water so that the active ingredient concentration was 500 ppm to obtain a test solution.
To 100 mL of ion-exchanged water, 0.7 ml of the test solution was added (active ingredient concentration: 3.5 ppm). Into the solution, 20 last-instar larvae of Culex pipiens pallens were released. One day after, the number of surviving Culex pipiens pallens was examined and the death rate of the pest was calculated.

Assay [4] relates to Haemaphysalis longicornis. Kind of assay: Test Example 7: treated filter paper pouch test on ticks. As to conditions: Haemaphysalis longicornis, 48 h; filter paper treated with 100 mg/m^2; non-blood-sucking nymphal ticks, 10 ticks/group; two days after; read-out: pest death rate. Here is the method:
Five milligrams of any one of the present compounds (4), (7), (18t), (22), (25t), (26t), (29), (30), (31), (32), (33), (34), (35), (40), (41), (42), (43), (44) and (55) was dissolved in 10 mL of acetone. One milliliter of the acetone solution was uniformly applied on one side of a filter paper (TOYO No. 2; 5×10 cm), so that the filter paper having a surface area of 50 cm^2 was treated with 100 mg/m^2 of the present compound. After drying, the filter paper was folded in two and its edges were clipped to make a pouch. Test ticks (non-blood-sucking nymphal ticks, Haemaphysalis longicornis, 10 ticks/group) were put into the pouch, and the pouch was sealed with clips. Two days after, the number of surviving ticks was examined and the death rate was calculated.

Consider `C#CC1(F)CCC(CS(=O)(=O)CCC(F)(F)F)CC1` (stereo not drawn) [present compound (7)], for which the figures for the pest or weed control at 500 ppm in assay [1] and in assay [2] were no less than 90% and 100%, respectively. For the same compound, the pest or weed control at 3.5 ppm in assay [3] is no less than 95%. The pest or weed control at 100 mg/m2 in assay [4] was 90%.
As to `C#CC1CCC(CS(=O)(=O)CCC(F)(F)F)CC1` (stereo not drawn) [present compound (18t), 1-ethynyl-4-(3,3,3-trifluoropropylsulfonylmethyl)cyclohexane], the values for the pest or weed control at 500 ppm in assay [1] and in assay [2] were no less than 90% and 100%, respectively. Moreover, the pest or weed control at 3.5 ppm in assay [3] was no less than 95%. Further, in assay [4], the pest or weed control at 100 mg/m2 amounted to 90%.
With `C#CC1CCC(C[S+]([O-])CCC(F)(F)F)CC1` (stereo not drawn) [present compound (26t), 1-ethynyl-4-(3,3,3-trifluoropropylsulfinylmethyl)cyclohexane], the figures for the pest or weed control at 500 ppm in assay [1] and in assay [2] were no less than 90% and 100%, respectively. In assay [3], the pest or weed control at 3.5 ppm is no less than 95%. The pest or weed control at 100 mg/m2 in assay [4] was determined as 90%.
For `N#CC(C1CCC(F)(F)CC1)S(=O)(=O)CCC(F)(F)F` (stereo not drawn) [present compound (29), 2-(4,4-difluorocyclohexyl)-2-(3,3,3-trifluoropropylsulfonyl)acetonitrile] the same measures were no less than 90%, 100%, no less than 95% and 90%.
On the same counts, the results for `CON=C1CCC(C(C#N)S(=O)(=O)CCC(F)(F)F)CC1` (stereo not drawn) [present compound (33), 2-[4-(methoxyimino)cyclohexyl]-2-(3,3,3-trifluoropropylsulfonyl)acetonitrile] are no less than 90%, 100%, no less than 95% and 90%.
As to `N#CC(C1CCC(=NO)CC1)S(=O)(=O)CCC(F)(F)F` (stereo not drawn) [present compound (34), 2-[4-(hydroxyimino)cyclohexyl]-2-(3,3,3-trifluoropropylsulfonyl)acetonitrile], the pest or weed control at 500 ppm is no less than 90% in assay [1] and 100% in assay [2]. The pest or weed control at 3.5 ppm in assay [3] is no less than 95%. In addition, in assay [4], the pest or weed control at 100 mg/m2 was 90%.
In the case of `CON=C1CCC(C(C)(C#N)S(=O)(=O)CCC(F)(F)F)CC1` (stereo not drawn) [present compound (40), 2-[4-(methoxyimino)cyclohexyl]-2-(3,3,3-trifluoropropylsulfonyl)propionitrile], the figures for the pest or weed control at 500 ppm in assay [1] and in assay [2] were no less than 90% and 100%, respectively. The pest or weed control at 3.5 ppm in assay [3] was no less than 95%. Moreover, the pest or weed control at 100 mg/m2 in assay [4] was found to be 90%.
For the compound `CCC(C#N)(C1CCC(=NOC)CC1)S(=O)(=O)CCC(F)(F)F` (stereo not drawn) [present compound (41), 2-[4-(methoxyimino)cyclohexyl]-2-(3,3,3-trifluoropropylsulfonyl)butyronitrile], the results for the pest or weed control at 500 ppm in assay [1] and in assay [2] were no less than 90% and 100%, respectively. Further, the pest or weed control at 3.5 ppm in assay [3] was no less than 95%. Also, the pest or weed control at 100 mg/m2 in assay [4] was 90%.
With `CON=C1CCC(C(C#N)S(=O)(=O)CCC(F)(F)C(F)(F)F)CC1` (stereo not drawn) [present compound (55), 2-[4-(methoxyimino)cyclohexyl]-2-(3,3,4,4,4-pentafluorobutylsulfonyl)acetonitrile], the pest or weed control at 500 ppm in assay [1] was no less than 90%; in assay [2], 100%. In addition, the pest or weed control at 3.5 ppm in assay [3] was no less than 95%. Also, the pest or weed control at 100 mg/m2 in assay [4] is 90%.
